Measurements reported in patent publication US7763707B2, “Use of ghrelin splice variant for treating cachexia and/or anorexia and/or anorexia-cachexia and/or malnutrition and/or lipodystrophy and/or muscle wasting and/or appetite-stimulation” (priority 2006, dated 2010).
Square brackets hold non-standard residues; d marks the D form. Ends that are not written are not given here. * marks the point of attachment. Octanoyl = CCCCCCCC(=O)*; Dap = NC[C@H](N)C(=O)O

Tests used:
[1] = Subcutaneous administration of acylated ghrelin splice variant: weight gain, food consumption, body composition in 129Sv mice; type: in vivo
Procedure: FIG. 1A is a line graph showing cumulative body weight gain of acylated ghrelin splice variant-treated (SEQ ID NOs: 2 and 5) 129Sv mice compared to vehicle-treated controls. Acylated ghrelin splice variant induces body weight gain in male wild-type mice (n=10 per group, P=0.0001). In mice treated once daily for two weeks with acylated ghrelin splice variant (0.8 mg/kg, subcutaneously), cumulative weight gain of the SEQ ID NO:2 group was 3.4 times more than the vehicle-injected control animals. Cumulative weight gain of the acylated SEQ ID NO:5 group was 2 times more than the vehicle-injected control animals. FIG. 1B is a line graph showing cumulative food consumption of acylated ghrelin splice variant-treated (SEQ ID NOs: 2 and 5) 129Sv mice compared to vehicle-treated controls. […] Mice treated once daily for two weeks with acylated ghrelin splice variant (0.8 mg/kg, subcutaneously) ate 13% more than the vehicle-injected control animals (n=10 per group, P=0.004).
FIG. 2A is a line graph showing cumulative body weight gain of acylated ghrelin splice variant-treated (SEQ ID NOs: 2 and 4) 129Sv mice and of unacylated SEQ ID NO:5 compared to vehicle-treated controls. Acylated ghrelin splice variants induces body weight gain in male wild-type mice (n=8 per group, P=0.0001). In mice treated once daily for seven days with acylated or un-acylated ghrelin splice variant (7.2 mg/kg, subcutaneously), cumulative weight gain of the SEQ ID NO:2 and SEQ ID NO:4 group was 2.2 times more than the vehicle-injected control animals. Cumulative weight gain of the un-acylated SEQ ID NO:5 group was 25% less than the vehicle-injected control animals. FIG. 2B is a line graph showing cumulative food consumption of acylated ghrelin splice variant-treated (SEQ ID NOs: 2 and 4) 129Sv mice and of unacylated SEQ ID NO:5 compared to vehicle-treated controls. […] Mice treated once daily for seven days with acylated ghrelin splice variants (7.2 mg/kg, subcutaneously) ate 18% more than the vehicle-injected control animals (n=8 per group). Mice treated once daily for seven days with SEQ ID NO:5 (7.2 mg/kg, subcutaneously) ate 2% less than the vehicle-injected control animals (n=8 per group).
FIG. 4 is a bar graph showing the change in body composition of acylated ghrelin splice variant-treated (SEQ ID NOs: 2 and 4) 129Sv mice and unacylated SEQ ID NO:5 treated mice compared to vehicle and ghrelin-treated controls. Effect of seven days daily subcutaneous treatment with saline, ghrelin or acylated ghrelin splice variant (7.2 mg/kg, subcutaneously) on fat and lean body mass as measured by NMR is shown.
Acylated ghrelin splice variant (20 μg (FIGS. 1A and 1B) or 180 μg (FIGS. 2A and 2B)) or the Vehicle (1.6% mannitol) were administered once daily for 14 successive days (FIGS. 1A and 1B) or 7 successive days (FIGS. 2A and 2B), via the subcutaneous (SC) route, to groups comprising n=10 (FIGS. 1A and 1B) or n=8 (FIGS. 2A and 2B) 129Sv male mice. […] All animals were subjected to terminal bleeding, under CO2 anesthesia, immediately prior to euthanasia. Terminal blood collection was performed serially as per animal number, and not as per group.
Biochemistry: Blood for biochemistry analysis was collected into non-coated pre-labeled tubes. The tubes were pre-labeled and contained the following information: Study number, group number, animal number and date. Following clotting, the blood from each animal was centrifuged, and the serum was collected into two pre-labeled tubes and submitted for analysis as follows: Serum, 250 μl, was kept at 2-8° C. until analysis. The samples were subjected to the following listed tests using a Hitachi 917 system: Creatinine, Total bilirubin, Glucose, Triglycerides, Cholesterol, HDL, LDL, Total protein, Globulin, Albumin, Urea, Potassium, Phosphorus, Calcium, Sodium, Chloride, sGOT, sGPT, ALP. Urinalysis: Urine was collected into pre-labeled tubes (as above) from all animals (where possible) prior and/or after euthanasia. […]

[2] = cited from earlier work
[3] = 129Sv male mice, 7.2 mg/kg subcutaneously once daily for seven days, n=8 per group
[4] = 129Sv male mice, 0.8 mg/kg subcutaneously once daily for two weeks, n=10 per group

un-acylated SEQ ID NO:5: 29 amino acid human ghrelin splice variant without acyl group (GSSFLSPEHQRVQVRPPHKAPHVVPALPL; listed as Homo sapiens)
cumulative weight gain, less than the vehicle-injected control animals [1, 3]: 25% | cumulative food consumption, less than the vehicle-injected control animals ([1]; 129Sv mice, 7.2 mg/kg subcutaneously once daily for seven days, n=8 per group): 2%

ghrelin: 28 amino acid peptide bearing an n-octanoyl side chain on the third serine (GSS(Octanoyl)FLSPEHQRVQQRKESKKPPAKLQPR; UniProt Q9UBU3 24-51, looked up)
effect of weight gain (lean vs fat mass) ([1]; Applicant's statement in the background): mainly on fat mass | increase of food intake ([2]; infusion for 90 minutes, cancer cachexia patients): 30% | increase of energy intake ([2]; subcutaneous injection of 3.6 nmol/kg prior to a meal): 27%

acylated SEQ ID NO:5: 29 amino acid human ghrelin splice variant, acylated at position 3 (GSSFLSPEHQRVQVRPPHKAPHVVPALPL; also: acylated at position 3 (acyl group not given here); listed as Homo sapiens)
cumulative weight gain, times more than the vehicle-injected control animals [1, 4]: 2 times

GSS (CO—C7H15) FLSPEHQRVQVRPPHKAPH (GSS(Octanoyl)FLSPEHQRVQVRPPHKAPH; listed as Homo sapiens) [SEQ ID NO:2, 22 amino acid human ghrelin splice variant, acylated at position 3]
cumulative weight gain, times more than the vehicle-injected control animals [1, 4]: 3.4 times | cumulative weight gain, times more than the vehicle-injected control animals [1, 3]: 2.2 times

SEQ ID NO:4: 24 amino acid human ghrelin splice variant having a 2,3-diaminopropionic acid (Dpr) residue in the third position, acylated (GS[Dap]FLSPEHQRVQVRPPHKAPHVV; also: Dpr3 acylated, acyl group not given here; listed as Homo sapiens)
cumulative weight gain, times more than the vehicle-injected control animals [1, 3]: 2.2 times
